Reference: paper PMC5641330, “Prediction of a Therapeutic Dose for Buagafuran, a Potent Anxiolytic Agent by Physiologically Based Pharmacokinetic/Pharmacodynamic Modeling Starting from Pharmacokinetics in Rats and Human” (Frontiers in Pharmacology, 2017)

How the values were obtained:
[1] = parameters: method as in Zhang, 1997; Li et al., 2001; Li, 2010; settings: rat liver microsomes, ref Zhang, 1997, Li et al., 2001, 2010; cited from earlier work
[2] = Clearance prediction from incubation with human liver microsomes; format: in vitro ADME
Protocol: Drug disappearance t1/2 value measurements in rat and human microsomes were used to determine the in vitro apparent intrinsic clearance value (CLintapp) of buagafuran acquired using Then CLintapp was converted to in vivo intrinsic clearance (CLint).
Rat or human liver microsomal incubation (0.5 mg/mL) was carried out at 37°C in a mixture of 0.5 mL in 0.05 M Tris–HCl buffer (pH 7.4). Buagafuran (2 μM) was added to the incubation system. The addition of NADPH (1 mM) initiated the reaction, then the reaction was incubated for 0, 10, 20, 30, 45, and 60 min. The equal volume of acetonitrile containing the IS (10 ng/mL) was added to stop the reaction. The mixtures were centrifuged at 16000 g for 5 min and the supernatants were determined using LC-MS/MS method.
The natural log (In) of buagafuran concentration versus time was plotted and the slope of the best fit line of was determined by the data (k). This was converted into in vitro t1/2 where t1/2 = In 2/k. CLintapp was calculated by the following equation: […]
Where M is the microsomal protein concentration in the incubation. CLint by liver was calculated from equation 2:
(2) CLint=CLint(app)×mgmicrosome/gliver×liverweight(g)/bodyweight(kg)
Where a value of 45 mg of protein per gram of liver tissue was used for both rat and human, and a liver weight of 40 and 21 g per kg were applied to rat and human, respectively ([Hosea et al., 2009]). […]

[3] = parameters: method as in Chen X. et al., 2013; settings: clinical data; ref Chen X. et al., 2013; cited from earlier work
[4] = PBPK simulation in rat (GastroPlus)
From the text: GastroPlus^TM software (version 8.5) was used to perform all simulations, (Simulations Plus, Inc., Lancaster, CA, United States). The absorption of oral formulations from the GI tract was modeled by the advanced compartmental absorption and transit (ACAT^TM) model implemented in GastroPlus ([Agoram et al., 2001]; [Kuentz et al., 2006]; [Huang et al., 2009]; [Zhang et al., 2011]). Input parameters in the ACAT model include three groups: formulation properties, physicochemical properties and pharmacokinetic parameters. […] The immediate release (IR) suspension for rat and IR capsule for human were selected for simulation of buagafuran in GastroPlus^TM. The ACAT model consists of nine compartments that mimic the GI tract. Each GI tract has an associated ASF. ASF is the multiplier used to scale the permeability to account for different surface-to-volume ratios, pH effects, transporter differences, and other factors that affect absorption between different compartments ([Zhang et al., 2011]). Four coefficients C1–C4 are used to calculate ASF. And there are eight basic ASF models in version 8.5. […]
The pharmacokinetic parameters of unbound fraction in plasma (FUp) were experimentally measured values. […]

[5] = parameters: method as in Hu et al., 2011; settings: rats, oral administration; ref Hu et al., 2011; cited from earlier work

Compound: CCCCC1=CCC[C@@]2(C)CC[C@@H]3C[C@]12OC3(C)C [buagafuran]
- extraction ratio [1]: about 50%
- CLhep predicted ([2]; from human liver microsomes, well-stirred model): 7.7 mL/min/kg
- microsomal CLint at 2 μM ([2]; pH 7.4, human liver microsomes 0.5 mg/mL, 2 μM, read-out: in vitro CLintapp): 22 µL/min/mg
- urine excretion of the dose administered [3]: less than 1%
- Kp ([4]; brain, oral, optimized by parameter sensitivity analysis, also used for human simulation): 6.7
- input (refined) CLhep ([4]; optimized by comparing fitting with observed PK data): 36.8 mL/min/kg
- dose recovered as prototype in the bile [5]: < 0.3%
- dose recovered as prototype in the urine [5]: less than 0.1%
- radioactivity recovered in feces [5]: 28.7%
- radioactivity recovered in urine [5]: 51.2%
- total radioactivity recovered [5]: about 80%
